In article PMC9556435 (2022):

Key:
[1] = tested on: MYC-G4 (DNA, G4) TGAGGGTGGGTAGGGTGGGTAA; experiment: 1H NMR titration; conditions: 50 mM K+; 150 μM DNA, pH 7, 25 °C, DMSO-d6 < 1.5%
[2] = tested on: KRAS-G4 (Pu24m1) (DNA, G4) TGAGGGCGGTGTGGGAATAGGGAA; experiment: NMR solution structure; conditions: 50 mM K+; 1.5 mM DNA, pH 7, DMSO-d6 < 3.5%; stacks on both outer tetrads
[3] = tested on: KRAS-G4 (Pu24m1) (DNA, G4) TGAGGGCGGTGTGGGAATAGGGAA; experiment: fluorescence titration; conditions: 50 mM K+; pH 7; 0.2 μM compound fixed, titrated with DNA; 2:1 binding equation
[4] = tested on: KRAS-G4 (Pu24m1) (DNA, G4) TGAGGGCGGTGTGGGAATAGGGAA; experiment: CD melting (264 nm); conditions: 15 mM K+; potassium phosphate/KCl, pH 7; 20 μM DNA, 2 equivalents compound
[5] = tested on: VEGF-G4 (DNA, G4) CAGGGCGGGCCTTGGGCGGGAT; experiment: 1H NMR titration; conditions: 50 mM K+; 150 μM DNA, pH 7, 25 °C, DMSO-d6 < 1.5%

| Structure (SMILES) | binding [1] | binding [2] | Kd [3] [nM] | ΔTm [4] [°C] | binding [5] |
| --- | --- | --- | --- | --- | --- |
| c1c2c(cc3c1OCO3)-c1cc3ccc4c(c3c[n+]1CC2)OCO4 | yes | yes | 500 | 19 | yes |
| COc1ccc2cc3[n+](cc2c1OC)CCc1cc2c(cc1-3)OCO2 | yes | yes | 550 | 15 | yes |
